These results are taken from ChEMBL document CHEMBL3826923, “Synthesis and biological activity of novel ester derivatives of N(3)-(4-metoxyfumaroyl)-(S)-2,3-diaminopropanoic acid containing amide and keto function as inhibitors of glucosamine-6-phosphate synthase” (Bioorg Med Chem Lett, 2016).

Structures are written as SMILES.

One experiment relates to Escherichia coli. In words: Antimicrobial activity against Escherichia coli PCM 2560 after 24 hrs by serial two fold dilution method. It is filed as functional. Particulars: PCM 2560, 24 h.
Experiment [1] can be described thus: Inhibition of Candida albicans glucosamine-6-phosphate synthase expressed in Escherichia coli using D-fructose-6-phosphate as substrate after 30 mins.
Another experiment concerns Staphylococcus aureus. The experiment can be described thus: Antimicrobial activity against Staphylococcus aureus ATCC 29213 after 24 hrs by serial two fold dilution method. Particulars: ATCC 29213, 24 h. It is filed as functional.
In a further experiment the test system is Nakaseomyces glabratus. The experiment can be described thus: Antimicrobial activity against Candida glabrata DSM 11226 after 48 hrs by serial two fold dilution method. Particulars: DSM 11226, 48 h. It is filed as functional.
In the next experiment the test system is Candida albicans. The experiment can be described thus: Antimicrobial activity against Candida albicans ATCC 10231 after 48 hrs by serial two fold dilution method. Particulars: ATCC 10231, 48 h. It is filed as functional.

By MIC80 is commonly meant an inhibitory concentration at the 80% level, which refers to growth in some studies and to a panel of isolates in others. Low values mean higher susceptibility, high ones lower susceptibility. As usually defined, the IC50 is the concentration at which inhibition is half-maximal. In the case of `COC(=O)/C=C/C(=O)NC[C@H](N)C(=O)O`, the MIC80 against Escherichia coli, in the experiment on Staphylococcus aureus, with Nakaseomyces glabratus and against Candida albicans was more than 1020 µg/mL throughout. In experiment [1], half-maximal inhibition (IC50) required 4.03 µM.

Turning to `COC(=O)/C=C/C(=O)NC[C@H](N)C(=O)OCC(=O)N(C)C.Cl`, the MIC80 in the experiment on Escherichia coli is more than 1020 µg/mL; in the experiment on Staphylococcus aureus it was 512 µg/mL; against Nakaseomyces glabratus, more than 1020 µg/mL; in the experiment on Candida albicans, 2 µg/mL. For the same compound, in experiment [1], it took 66.6 µM to reach half-maximal inhibition (IC50).

`COC(=O)/C=C/C(=O)NC[C@H](N)C(=O)O[C@@H](C)C(=O)N(C)C.Cl`: the MIC80 in the experiment with Escherichia coli was more than 1020 µg/mL; with Staphylococcus aureus, more than 1020 µg/mL; against Nakaseomyces glabratus it was more than 1020 µg/mL; against Candida albicans, 256 µg/mL. This compound returned a half-inhibitory concentration (IC50) in experiment [1] of more than 5000 µM.

On to `COC(=O)/C=C/C(=O)NC[C@H](N)C(=O)OCC(C)=O.Cl`, for which the MIC80 with Escherichia coli was more than 1020 µg/mL; in the experiment with Staphylococcus aureus, more than 1020 µg/mL; with Nakaseomyces glabratus, 512 µg/mL; with Candida albicans it was 0.25 µg/mL. In experiment [1], this compound came in with a concentration for half-maximal inhibition (IC50) of 5.08 µM.

With `COC(=O)/C=C/C(=O)NC[C@H](N)C(=O)OCC(N)=O.Cl`, the MIC80 with Escherichia coli was more than 1020 µg/mL; in the experiment on Staphylococcus aureus, more than 1020 µg/mL; in the experiment on Nakaseomyces glabratus, more than 1020 µg/mL; in the experiment on Candida albicans it was 128 µg/mL. In experiment [1], this compound displayed a half-inhibitory concentration (IC50) of 202 µM.

Take `CNC(=O)[C@H](C)OC(=O)[C@@H](N)CNC(=O)/C=C/C(=O)OC.Cl`: the MIC80 in the experiment with Escherichia coli was more than 1020 µg/mL; with Staphylococcus aureus, more than 1020 µg/mL; with Nakaseomyces glabratus, more than 1020 µg/mL; against Candida albicans, 16 µg/mL. Besides, the half-maximal inhibitory concentration (IC50) in experiment [1] stood at 199 µM.

For `CNC(=O)COC(=O)[C@@H](N)CNC(=O)/C=C/C(=O)OC.Cl`, the MIC80 in the experiment on Escherichia coli was more than 1020 µg/mL; against Staphylococcus aureus, 1020 µg/mL; against Nakaseomyces glabratus, more than 1020 µg/mL; in the experiment on Candida albicans, 1 µg/mL. Inhibition in experiment [1] was half-maximal at 27 µM (IC50).

Turning to `COC(=O)/C=C/C(=O)NC[C@H](N)C(=O)OC(C)C(C)=O.Cl` (stereo not given in full), the MIC80 against Escherichia coli is more than 1020 µg/mL; against Staphylococcus aureus, more than 1020 µg/mL; against Nakaseomyces glabratus, 512 µg/mL; in the experiment with Candida albicans, 0.5 µg/mL. Further, half-maximal inhibition in experiment [1] (IC50) was put at 4.91 µM.

With `COC(=O)/C=C/C(=O)NC[C@H](N)C(=O)O[C@@H](C)C(N)=O.Cl`, the MIC80 in the experiment with Escherichia coli was more than 1020 µg/mL; against Staphylococcus aureus it was more than 1020 µg/mL; with Nakaseomyces glabratus, more than 1020 µg/mL; in the experiment with Candida albicans, 8 µg/mL. Besides, 82.1 µM corresponded to half-maximal inhibition in experiment [1] (IC50).

`COC(=O)/C=C/C(=O)NC[C@H](N)C(=O)OCC(=O)C(C)(C)C.Cl`: the MIC80 in the experiment on Escherichia coli was more than 1020 µg/mL; in the experiment on Staphylococcus aureus it was more than 1020 µg/mL; with Nakaseomyces glabratus, 512 µg/mL; in the experiment with Candida albicans, 0.5 µg/mL. For the same compound, 5.17 µM corresponded to half-maximal inhibition in experiment [1] (IC50).
